{"source": "patent US12504425B2", "about": "“Blood vessel model” (FUJIFILM CORPORATION, priority 2017, dated 2025)", "key": {"[1]": {"system": "layer of rat vascular endothelial cells and layer of rat smooth muscle cells on porous membrane", "experiment": "FITC-Dextran permeability test of cell-layer-affixed blood vessel model after drug exposure", "type": "cell-based", "details": "drug 500 ng/ml, 0.7 μL/min, one day, upper microchannel, imaged two minutes after running FITC-Dextran", "procedure": "The cells employed in example 3 and comparative example 3 were the same as that employed in example 2 and comparative example 2. To form the cell layers, the lower microchannel was initially seeded with 100 μL of a cell suspension of rat smooth muscle cells having a cell concentration of 3×10^6 cells/ml. After a day of cultivation, the upper microchannel was seeded with 100 μL of a cell suspension of rat vascular endothelial cells having a cell concentration of 1×10^6 cells/ml and cultivated for six hours. Then, a respective culture medium (rat EC medium/SMC medium) was run through each channel with a rate of fluid delivery of 0.7 μL/min using a pump. After two days of cultivation, the cell-layer-affixed blood vessel models of example 3 and comparative example 3 were obtained. […]\nTwo minutes after running the FITC-Dextran through the channels, an inverted microscope (product name Eclipse Ts2, made by Nikon) was used to image fluorescence in the microchannels. […]\nAfter drug exposure, a FITC-Dextran permeability test was performed using the same method as the FITC-Dextran permeability test for the cell-layer-affixed blood vessel models described above. […] In the cell-layer-affixed blood vessel model of comparative example 3, the fluorescence observed in the lower microchannel was minimal. […]"}, "[2]": {"system": "layer of rat vascular endothelial cells and layer of rat smooth muscle cells on porous membrane", "experiment": "fluorescent bead permeability test of cell-layer-affixed blood vessel model after drug exposure", "type": "cell-based", "details": "drug 50 μg/ml, 0.7 μL/min, one day, both microchannels, 4 μm beads 1.81×10^6 beads/ml in upper microchannel", "procedure": "In example 2 and comparative example 2, Rat Arterial Endothelial Cells produced by Angio-Proteomie were employed for the rat vascular endothelial cells, and Rat Aortic Smooth Muscle Cells produced by Lonza were employed for the rat smooth muscle cells. The lower microchannel was initially seeded with 100 μL of a cell suspension of rat smooth muscle cells having a cell concentration of 3×10^6 cells/ml. After a day of cultivation, the upper microchannel was seeded with 100 μL of a cell suspension of rat vascular endothelial cells having a cell concentration of 3×10^6 cells/ml. After two days of cultivation, the cell-layer-affixed blood vessel models of example 2 and comparative example 2 were obtained.\nA culture medium dilution containing fluorescent beads at a concentration of 1.81×10^6 beads/ml for a tracer was run through the upper microchannel of the cell-layer-affixed blood vessel models produced in example 2 and comparative example 2, and a culture medium not containing fluorescent beads was run through the lower microchannel. […]"}}}
{"molecule": "Oc1ccc(C2CNCCc3c2cc(O)c(O)c3Cl)cc1", "note": "(stereo not shown) [fenoldopam]", "values": [{"measurement": "FITC-Dextran fluorescence observed in the lower microchannel", "setting": "[1]; blood vessel model of comparative example 3 (track-etched porous membrane)", "result": "minimal"}, {"measurement": "FITC-Dextran fluorescence observed in the microchannels", "setting": "[1]; blood vessel model of example 3 (honeycomb porous membrane)", "result": "fluorescence was observed over a wide area, including in the lower microchannel"}]}
{"molecule": "cytochalasin", "values": [{"measurement": "number of fluorescent beads inside the lower microchannel", "setting": "[2]; blood vessel model of comparative example 2 (track-etched porous membrane)", "result": "6.7×10^3 beads/ml"}, {"measurement": "number of fluorescent beads inside the lower microchannel", "setting": "[2]; blood vessel model of example 2 (honeycomb porous membrane)", "result": "1.7×10^5 beads/ml"}]}
